# Where a SMILES comes first, the peptide text is derived from it. [ ]: non-standard residue; d: D form. The star is where a group is joined. 5FAM = O=C1OC2(c3ccc(O)cc3Oc3cc(O)ccc32)c2ccc(C(=O)*)cc21; Lys(Me3) = C[N+](C)(C)CCCC[C@H](N)C(=O)O
# Target: T1, CDYL2 chromo (Homo sapiens, UniProt Q8N8U2)
# T1 construct: 1-75; made in house; host or cells: E. coli BL21
# T1 sequence (Q8N8U2 1-75): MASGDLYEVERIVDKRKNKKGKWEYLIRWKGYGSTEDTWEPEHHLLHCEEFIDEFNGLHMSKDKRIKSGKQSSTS
# Assay: Fluorescence polarization assay, CDYL2 chromo
# Assay type: binding
# Settings: 10 nM N-terminal FAM peptide, 25 mM HEPES pH 7.5, 100 mM NaCl, 0.05% NP-40, average of 4 measurements from 2 independent experiments, error SD (Figure 4C)
# Method: Plasmids encoding N-terminal GST fusions of each reader domain (Supplementary Table S1) were transformed into BL21 E. coli and protein expression was induced with 0.5 mM IPTG at 16°C for 6–16 h. Induced bacterial pellets were suspended in 30 mL cold 1× PBS supplemented with 1 mM DTT and 1 mM PMSF. Next, bacteria were incubated with lysozyme (Thermo #89833 LOT#ta262343) and 1 μL of Pierce universal nuclease (Pierce #88702 LOT#00775219) on ice for 30 min followed by 3 rounds of sonication (30 s sonication with 10 s rest, all on ice) using a Qsonica ultrasonic processor (500 W 20 kHz with 1/8” microtip) at 40% amplitude. Lysed bacteria were centrifuged at 38465 rcf for 45 min at 4°C. Cleared supernatant was incubated with 5 mL of Glutathione resin (Thermo #16101 LOT#UD285112) with rotation at 4°C for 16 h. Bound protein was washed 3× with 10 mL cold 1× PBS and eluted twice with 10 mL of 25 mM HEPES pH 7.5, 10 mM L-glutathione (Sigma), and 100 mM NaCl. Protein was concentrated by centrifugation at 1,500 rpm on a Sorvall Legend X1 centrifuge in Amicon Ultra-15 centrifugal filter units (UFC#903024). Protein was resuspended in 25 mM HEPES pH 7.5 and 100 mM NaCl and concentrated by centrifugation as above three times. Protein was quantified by absorbance measurement at 280 nm divided by the computed extinction coefficient (ExPASy) ([Gasteiger et al., 2003]) of the GST-tagged protein domain.
# Peptides functionalized with N-terminal 5-carboxyfluorescin (FAM) were synthesized by Genscript. All 7-mer motifs were synthesized with flanking glycines to mimic the Kme-OPL design. Binding assays were done in black 384 well plates (Corning #3575). […] Polarization was measured on a Synergy Neo fluorescence plate reader (Biotek) with a 485 ± 10 nm excitation filter and a 528 ± 10 nm emission filter. […] Anisotropy units (A) were calculated using the equation A = (2P)/(3-P). Dissociation constants were determined by non-linear regression analysis of anisotropy curves by specific binding with Hill slope in GraphPad version 8.3.0.
structure (smiles),measurement,value
C[C@H](NC(=O)[C@@H](NC(=O)CNC(=O)c1ccc2c(c1)C(=O)OC21c2ccc(O)cc2Oc2cc(O)ccc21)[C@@H](C)O)C(=O)N[C@@H](CCCNC(=N)N)C(=O)N[C@@H](CCCC[N+](C)(C)C)C(=O)N[C@@H](CO)C(=O)N[C@H](C(=O)NCC(=O)NCC(=O)O)[C@@H](C)O [GTAR(Kme3)STGG] (5FAM-GTAR[Lys(Me3)]STGG-OH),Kd,18.4 ± 6 µM

# Reference: publication PMC7160673, “A Degenerate Peptide Library Approach to Reveal Sequence Determinants of Methyllysine-Driven Protein Interactions” (Frontiers in Cell and Developmental Biology, 2020)
